Where two headings read alike, the source gives them in different places.
Tests used:
Format in all cases: biochemical
TYK2 = TYK2 (Homo sapiens (Human), UniProt P29597); assay: JAK Caliper Enzyme Assay at 1 mM ATP, TYK2
Summary of the method: (§1)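 Human recombinant kinase domain + fluorescently labelled synthetic peptide, 1 mM ATP, RT; enzyme level/time set for 20–30% phosphorylation. EDTA stop. LabChip separation, peak-height % conversion, % effect vs plate controls.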

JAK2 = JAK2 (Homo sapiens (Human), UniProt O60674); assay: JAK Caliper Enzyme Assay at 1 mM ATP, JAK2
Sequence of JAK2 (O60674 849-1124): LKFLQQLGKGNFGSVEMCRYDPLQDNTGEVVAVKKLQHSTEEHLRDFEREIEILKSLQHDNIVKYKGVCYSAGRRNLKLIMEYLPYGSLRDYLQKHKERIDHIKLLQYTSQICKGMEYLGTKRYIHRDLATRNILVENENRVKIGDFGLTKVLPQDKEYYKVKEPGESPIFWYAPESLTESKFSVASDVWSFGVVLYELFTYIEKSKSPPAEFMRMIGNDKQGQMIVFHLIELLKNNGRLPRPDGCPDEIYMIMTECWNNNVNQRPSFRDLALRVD
Summary of the method: as §1

JAK3 = JAK3 (Homo sapiens (Human), UniProt P52333); assay: JAK Caliper Enzyme Assay at 1 mM ATP, JAK3
Sequence of JAK3 (P52333 822-1111): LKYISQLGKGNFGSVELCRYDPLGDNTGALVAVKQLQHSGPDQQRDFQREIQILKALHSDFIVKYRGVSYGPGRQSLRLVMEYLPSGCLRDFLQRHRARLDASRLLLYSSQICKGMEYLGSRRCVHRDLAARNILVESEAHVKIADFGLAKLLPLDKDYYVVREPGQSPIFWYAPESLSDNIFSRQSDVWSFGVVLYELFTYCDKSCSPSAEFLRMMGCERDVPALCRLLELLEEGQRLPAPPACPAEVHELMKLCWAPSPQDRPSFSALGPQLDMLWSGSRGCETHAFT
Summary of the method: (§2)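 Recombinant human kinase domains phosphorylated a fluorescent synthetic peptide at room temperature, with enzyme level and time tuned to 20% to 30% conversion; EDTA stop buffer ended reactions. Mobility-shift separation gave percent product from peak heights, normalised to DMSO and positive controls, and IC50s came from concentration–effect curves.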

JAK1 = JAK1 (Homo sapiens (Human), UniProt P23458); assay: JAK Caliper Enzyme Assay at 1 mM ATP, JAK1
Sequence of JAK1 (P23458 875-1153): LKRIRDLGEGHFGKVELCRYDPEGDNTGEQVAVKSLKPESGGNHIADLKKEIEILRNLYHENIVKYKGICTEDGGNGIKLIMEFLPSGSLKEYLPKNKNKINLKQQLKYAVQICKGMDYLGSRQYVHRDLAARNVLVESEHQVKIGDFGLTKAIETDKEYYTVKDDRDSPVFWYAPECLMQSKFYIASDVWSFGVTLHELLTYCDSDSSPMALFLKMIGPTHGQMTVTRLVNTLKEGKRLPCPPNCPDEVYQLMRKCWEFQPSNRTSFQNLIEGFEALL
Summary of the method: as §2

Sequence of TYK2 (P29597 897-1176): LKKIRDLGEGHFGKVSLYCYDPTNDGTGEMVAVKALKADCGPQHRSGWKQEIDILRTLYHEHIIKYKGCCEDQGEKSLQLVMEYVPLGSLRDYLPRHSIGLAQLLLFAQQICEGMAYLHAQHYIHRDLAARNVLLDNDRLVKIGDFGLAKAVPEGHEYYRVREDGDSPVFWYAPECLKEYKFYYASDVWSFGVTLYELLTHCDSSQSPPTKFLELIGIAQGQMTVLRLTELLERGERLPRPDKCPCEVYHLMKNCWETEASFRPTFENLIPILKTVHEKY

IC50 (TYK2; JAK Caliper enzyme assay)	IC50 (JAK2; JAK Caliper enzyme assay)	IC50 (JAK3; JAK Caliper enzyme assay)	IC50 (JAK1; JAK Caliper enzyme assay)	IC50 (TYK2)	IC50 (JAK2)	IC50 (JAK3)	IC50 (JAK1)	Compound
330 nM	5610 nM	> 10000 nM	> 10000 nM	–	–	–	–	CS(=O)(=O)N1CC(CC#N)(n2ncc(-c3cc(-c4cccc(CO)c4F)cc4ncccc34)n2)C1 [Example 445, [3-(4-{7-[2-fluoro-3-(hydroxymethyl)phenyl]quinolin-5-yl}-2H-1,2,3-triazol-2-yl)-1-(methylsulfonyl)azetidin-3-yl]acetonitrile]
–	–	–	–	14 nM	91 nM	> 10000 nM	502 nM	Cc1cc(-c2cc3ncccc3c(-c3ccn([C@]4(CC#N)C[C@@H](C#N)C4)n3)n2)n[nH]1 [Example 43, trans-3-(cyanomethyl)-3-{3-[7-(5-methyl-1H-pyrazol-3-yl)-1,6-naphthyridin-5-yl]-1H-pyrazol-1-yl}cyclobutanecarbonitrile]
–	–	–	–	8 nM	33 nM	5250 nM	73 nM	N#CC[C@]1(n2ccc(-c3nc(-c4c[nH]nc4N)cc4ncccc34)n2)C[C@H](C#N)C1 [Example 98, trans-3-{3-[7-(3-amino-1H-pyrazol-4-yl)-1,6-naphthyridin-5-yl]-1H-pyrazol-1-yl}-3-(cyanomethyl)cyclobutanecarbonitrile]
–	–	–	–	20 nM	10 nM	2000 nM	86 nM	[3-(4-{7-[1-(oxetan-3-yl)-1H-pyrazol-4-yl]-1,6-naphthyridin-5-yl}-1H-pyrazol-1-yl)-1-(2,2,2-trifluoroethyl)azetidin-3- [Example 10]
709 nM	3150 nM	> 10000 nM	> 10000 nM	–	–	–	–	CS(=O)(=O)N1CC(CC#N)(n2ncc(-c3cc(-c4cccc(CN)c4)cc4ncccc34)n2)C1 [Example 427, [3-(4-{7-[3-(aminomethyl)phenyl]quinolin-5-yl}-2H-1,2,3-triazol-2-yl)-1-(methylsulfonyl)azetidin-3-yl]acetonitrile]
–	–	–	–	9 nM	22 nM	1850 nM	63 nM	N#CC[C@]1(n2ccc(-c3nc(-c4cn[nH]c4CO)cc4ncccc34)n2)C[C@@H](C#N)C1 [Example 92, cis-3-(cyanomethyl)-3-(3-{7-[5-(hydroxymethyl)-1H-pyrazol-4-yl]-1,6-naphthyridin-5-yl}-1H-pyrazol-1-yl)cyclobutanecarbonitrile]
105 nM	200 nM	> 10000 nM	739 nM	–	–	–	–	N#CC[C@]1(n2ncc(-c3cc(-c4cnn5cccnc45)cc4ncccc34)n2)C[C@@H](C#N)C1 [Example 419, cis-3-(cyanomethyl)-3-{4-[7-(pyrazolo[1,5-a]pyrimidin-3-yl)quinolin-5-yl]-2H-1,2,3-triazol-2-yl}cyclobutanecarbonitrile]
480 nM	486 nM	7280 nM	693 nM	–	–	–	–	Cn1cc(-c2cc(-c3ccn(C4(CC#N)CN(CC(F)(F)F)C4)n3)n3ncnc3c2)cn1 [Example 476, [3-{3-[7-(1-methyl-1H-pyrazol-4-yl)[1,2,4]triazolo[1,5-a]pyridin-5-yl]-1H-pyrazol-1-yl}-1-(2,2,2-trifluoroethyl)azetidin-3-yl]acetonitrile]
–	–	–	–	22 nM	174 nM	> 10000 nM	240 nM	C[C@]1(C#N)C[C@@](CC#N)(n2ccc(-c3nc(-c4cn[nH]c4)cc4ncccc34)n2)C1 [Example 84, cis-3-(cyanomethyl)-1-methyl-3-{3-[7-(1H-pyrazol-4-yl)-1,6-naphthyridin-5-yl]-1H-pyrazol-1-yl}cyclobutanecarbonitrile]
141 nM	1020 nM	> 10000 nM	3060 nM	–	–	–	–	Cc1nc(-c2cc(-c3cnn([C@]4(CC#N)C[C@@H](C#N)C4)n3)c3cccnc3c2)ccc1O [Example 382, trans-3-(cyanomethyl)-3-{4-[7-(5-hydroxy-6-methylpyridin-2-yl)quinolin-5-yl]-2H-1,2,3-triazol-2-yl}cyclobutanecarbonitrile]
506 nM	1480 nM	> 10000 nM	3330 nM	–	–	–	–	N#CC[C@]1(n2ncc(-c3cc(-c4cncc(N)n4)cc4ncccc34)n2)C[C@@H](C#N)C1 [Example 396, cis-3-{4-[7-(6-aminopyrazin-2-yl)quinolin-5-yl]-2H-1,2,3-triazol-2-yl}-3-(cyanomethyl)cyclobutanecarbonitrile]
–	–	–	–	65 nM	660 nM	> 10000 nM	3340 nM	N#CC[C@]1(n2ncc(-c3cc(-c4ncc(CO)s4)cc4ncccc34)n2)C[C@H](C#N)C1 [Example 343, trans-3-(cyanomethyl)-3-(4-{7-[5-(hydroxymethyl)-1,3-thiazol-2-yl]quinolin-5-yl}-2H-1,2,3-triazol-2-yl)cyclobutanecarbonitrile]
–	–	–	–	844 nM	7690 nM	> 10000 nM	> 10000 nM	C[C@]1(C#N)C[C@](CC#N)(n2ncc(-c3cc(-c4c[nH]nc4N)cc4ncccc34)n2)C1 [Example 321, trans-3-{4-[7-(3-amino-1H-pyrazol-4-yl)quinolin-5-yl]-2H-1,2,3-triazol-2-yl}-3-(cyanomethyl)-1-methylcyclobutanecarbonitrile]
–	–	–	–	27 nM	325 nM	> 10000 nM	198 nM	CS(=O)(=O)N1CC(CC#N)(n2ccc(-c3nc(-c4ccc(O)c(F)c4)cc4ncccc34)n2)C1 [Example 260, [3-{3-[7-(3-fluoro-4-hydroxyphenyl)-1,6-naphthyridin-5-yl]-1H-pyrazol-1-yl}-1-(methylsulfonyl)azetidin-3-yl]acetonitrile]
–	–	–	–	14 nM	26 nM	5980 nM	37 nM	N#CCC1CC(CC#N)(n2cc(-c3nc(-c4cn[nH]c4)cc4ncccc34)cn2)C1 (stereo not drawn) [Example 3, 2,2′-(cis-1-{4-[7-(1H-pyrazol-4-yl)-1,6-naphthyridin-5-yl]-1H-pyrazol-1-yl}cyclobutane-1,3-diyl)diacetonitrile]
–	–	–	–	1470 nM	3900 nM	> 10000 nM	6070 nM	CNC(=O)C1CC(CC#N)(n2ccc(-c3nc(-c4cc[nH]n4)cc4ncccc34)n2)C1 (stereo not drawn) [Example 26, cis-3-(cyanomethyl)-N-methyl-3-{3-[7-(1H-pyrazol-3-yl)-1,6-naphthyridin-5-yl]-1H-pyrazol-1-yl}cyclobutanecarboxamide]
–	–	–	–	1960 nM	> 10000 nM	> 10000 nM	> 10000 nM	N#CC[C@]1(n2ncc(-c3cc(-c4cccnc4N)cc4ncccc34)n2)C[C@@H](C#N)C1 [Example 362, cis-3-{4-[7-(2-aminopyridin-3-yl)quinolin-5-yl]-2H-1,2,3-triazol-2-yl}-3-(cyanomethyl)cyclobutanecarbonitrile]

Compound	IC50 (TYK2; JAK Caliper enzyme assay)	IC50 (JAK2; JAK Caliper enzyme assay)	IC50 (JAK3; JAK Caliper enzyme assay)	IC50 (JAK1; JAK Caliper enzyme assay)	IC50 (TYK2)	IC50 (JAK2)	IC50 (JAK3)	IC50 (JAK1)
N#CC[C@]1(n2ccc(-c3nc(-c4ccc(S(N)(=O)=O)nc4)cc4ncccc34)n2)C[C@H](C#N)C1 [Example 211, 5-(5-{1-[cis-3-cyano-1-(cyanomethyl)cyclobutyl]-1H-pyrazol-3-yl}-1,6-naphthyridin-7-yl)pyridine-2-sulfonamide]	–	–	–	–	17 nM	39 nM	9820 nM	181 nM
N#CC[C@]1(n2ncc(-c3cc(-c4cccc(C(=O)O)n4)cc4ncccc34)n2)C[C@H](C#N)C1 [Example 370, 6-(5-{2-[cis-3-cyano-1-(cyanomethyl)cyclobutyl]-2H-1,2,3-triazol-4-yl}quinolin-7-yl)pyridine-2-carboxylic acid]	–	–	–	–	30 nM	345 nM	> 10000 nM	2290 nM

Source: patent publication US11254668B2, “Pyrazolo[1,5-A]pyrazin-4-yl and related derivatives” (Pfizer Inc., priority 2017, dated 2022)
